Values after ≈ are worked out from the molar mass of the structure shown. Each block holds one molecule with its values, some of them ahead of it. Active and inactive are the calls of the source. No cut-off for these calls is given here.
Experiments:
Mus musculus [1] = assay: Ex vivo receptor occupancy at GluN2B receptor in CD-1 mouse forebrain membranes assessed as reduction in [3H]Ro 25-6981 receptor labeling at 3 mg/kg, iv incubated for 5 mins by topcount micro scintillation counting method; format: functional
[2] = Plasma concentration in CD-1 mouse at 0.1 to 1 mg/kg, iv; format: ADME, organism-based; conditions: in vivo
[3] = target: Voltage-gated inwardly rectifying potassium channel KCNH2 (Homo sapiens, UniProt Q12809); assay: Inhibition of human ERG expressed in HEK293 cells assessed as reduction in peak tail current after 2 to 5 mins by patch clamp based electrophysiology assay; format: cell-based
Cytochrome P450 2D6 [4] = target: T1, Cytochrome P450 2D6 (Homo sapiens, UniProt P10635); assay: Time dependent inhibition of CYP2D6 in human liver microsomes; format: ADME
Cytochrome P450 2B6 [5] = target: T2, Cytochrome P450 2B6 (Homo sapiens, UniProt P20813); assay: Time dependent inhibition of CYP2B6 in human liver microsomes; format: ADME
Cytochrome P450 3A4 [6] = target: T3, Cytochrome P450 3A4 (Homo sapiens, UniProt P08684); assay: Inhibition of CYP3A4 in human liver microsomes using BFC/BZR as substrate; format: ADME
[7] = Half life in cynomolgus monkey at 1 mg/kg, iv administered as 5 mins infusion; format: ADME, organism-based, Macaca fascicularis; conditions: in vivo
Cavia porcellus = assay: Cardiotoxicity in guinea pig assessed as increase in QTcB at 2 to 10 mg/kg, iv; format: toxicity, organism-based; conditions: in vivo
Salmonella typhimurium = assay: Mutagenicity in Salmonella typhimurium by Ames test; format: toxicity, organism-based; conditions: salmonella enterica subsp. enterica serovar typhimurium
[8] = AUClast in CD-1 mouse at 1 mg/kg, iv administered as 5 mins infusion; format: ADME, organism-based; design: dose 1 mg/kg, time 0 - last, route intravenous; conditions: in vivo
[9] = Dissociation constant, pKa of the compound by spectrophotometric method; format: physicochemical
[10] = target: Glutamate receptor ionotropic, NMDA 2B (Homo sapiens, UniProt Q13224); assay: Binding affinity to GluN2B receptor in human cortex
[11] = AUClast in Sprague-Dawley rat at 1 mg/kg, iv administered as 5 mins infusion; format: ADME, organism-based; design: dose 1 mg/kg, route intravenous, time 0 - last; conditions: in vivo
[12] = target: Adrenergic receptor alpha-1 (Homo sapiens) (UniProt P35348+P25100+P35368); assay: Inhibition of human adrenergic alpha 1 receptor; format: protein assay
[13] = Volume of distribution at steady state in CD-1 mouse at 1 mg/kg, iv administered as 5 mins infusion; format: ADME, organism-based; conditions: in vivo, read-out: Vdss
Cytochrome P450 3A4 [14] = target: T3, Cytochrome P450 3A4; assay: Time dependent inhibition of CYP3A4 in human liver microsomes using BFC/BZR as substrate; format: ADME
Cytochrome P450 2B6 [15] = target: T2, Cytochrome P450 2B6; assay: Inhibition of CYP2B6 in human liver microsomes; format: ADME
[16] = Prodrug activation in rat assessed as BMS-986169 level in blood at 37 degC; format: tissue-based
[17] = Half life in CD-1 mouse at 1 mg/kg, iv administered as 5 mins infusion; format: ADME, organism-based; conditions: in vivo
[18] = Clearance in cynomolgus monkey at 1 mg/kg, iv administered as 5 mins infusion; format: ADME, organism-based, Macaca fascicularis; conditions: in vivo
Cytochrome P450 2C9 [19] = target: T4, Cytochrome P450 2C9 (Homo sapiens, UniProt P11712); assay: Time dependent inhibition of CYP2C9 in human liver microsomes; format: ADME
[20] = Prodrug activation in cynomolgus monkey assessed as BMS-986169 level in plasma at 1.2 mg/kg, iv measured 10 mins post dose; format: organism-based, Macaca fascicularis; conditions: in vivo
[21] = Half life in dog liver microsomes; format: ADME, Canis lupus familiaris, microsome
Cytochrome P450 2D6 [22] = target: T1, Cytochrome P450 2D6; assay: Inhibition of CYP2D6 in human liver microsomes; format: ADME
[23] = Clearance in Sprague-Dawley rat at 1 mg/kg, iv administered as 5 mins infusion; format: ADME, organism-based; conditions: in vivo
[24] = Clearance in Beagle dog at 1 mg/kg, iv administered as 5 mins infusion; format: ADME, organism-based, Canis lupus familiaris; conditions: in vivo
[25] = target: Glutamate receptor ionotropic, NMDA 2C (Homo sapiens) (UniProt Q14957); assay: Negative allosteric modulation of human GluN2C receptor expressed in Xenopus laevis oocytes assessed as inhibition of glutamate/glycine-induced channel current at 3 uM after 10 to 15 mins by two electrode voltage clamp based electrophysiology assay; format: cell-based
Cytochrome P450 2C8 [26] = target: T5, Cytochrome P450 2C8 (Homo sapiens, UniProt P10632); assay: Inhibition of CYP2C8 in human liver microsomes; format: ADME
[27] = Volume of distribution at steady state in cynomolgus monkey at 1 mg/kg, iv administered as 5 mins infusion; format: ADME, organism-based, Macaca fascicularis; conditions: in vivo, read-out: Vdss
[28] = Fraction unbound in human plasma; format: ADME, cell-free
Cytochrome P450 2C8 [29] = target: T5, Cytochrome P450 2C8; assay: Time dependent inhibition of CYP2C8 in human liver microsomes; format: ADME
[30] = Half life in Sprague-Dawley rat at 1 mg/kg, iv administered as 5 mins infusion; format: ADME, organism-based; conditions: in vivo
[31] = target: Glutamate receptor ionotropic, NMDA 2D (Homo sapiens) (UniProt O15399); assay: Negative allosteric modulation of human GluN2D receptor expressed in Xenopus laevis oocytes assessed as inhibition of glutamate/glycine-induced channel current at 3 uM after 10 to 15 mins by two electrode voltage clamp based electrophysiology assay; format: cell-based
[32] = Fraction unbound in dog plasma; format: ADME, cell-free, Canis lupus familiaris
[33] = target: Glutamate receptor ionotropic, NMDA 2B (Homo sapiens, UniProt Q05586+Q13224); assay: Negative allosteric modulation of human GluN2B receptor expressed in Xenopus laevis oocytes assessed as inhibition of glutamate/glycine-induced channel current after 15 to 20 mins by two electrode voltage clamp based electrophysiology assay; format: cell-based
Cytochrome P450 2C19 [34] = target: T6, Cytochrome P450 2C19 (Homo sapiens, UniProt P33261); assay: Inhibition of CYP2C19 in human liver microsomes; format: ADME
[35] = Octanol/water buffer partition co-efficient, log D of the compound at pH 7.4 by shake-flask method; format: physicochemical
[36] = target: Glutamate receptor ionotropic, NMDA 2A (Homo sapiens) (UniProt Q12879); assay: Negative allosteric modulation of human GluN2A receptor expressed in Xenopus laevis oocytes assessed as inhibition of glutamate/glycine-induced channel current at 3 uM after 10 to 15 mins by two electrode voltage clamp based electrophysiology assay; format: cell-based
[37] = Volume of distribution at steady state in Sprague-Dawley rat at 1 mg/kg, iv administered as 5 mins infusion; format: ADME, organism-based; conditions: in vivo, read-out: Vdss
[38] = AUClast in Beagle dog at 1 mg/kg, iv administered as 5 mins infusion; format: ADME, organism-based, Canis lupus familiaris; design: dose 1 mg/kg, time 0 - last, route intravenous; conditions: in vivo
[39] = Ratio of drug uptake in CD-1 mouse brain to plasma at 0.1 to 1 mg/kg, iv; format: ADME, organism-based; conditions: read-out: BPR
[40] = Half life in mouse liver microsomes; format: ADME, microsome
Cytochrome P450 1A2 [41] = target: T7, Cytochrome P450 1A2 (Homo sapiens, UniProt P05177); assay: Inhibition of CYP1A2 in human liver microsomes; format: ADME
[42] = Fraction unbound in cynomolgus monkey plasma; format: ADME, cell-free, Macaca fascicularis
Cytochrome P450 1A2 [43] = target: T7, Cytochrome P450 1A2; assay: Time dependent inhibition of CYP1A2 in human liver microsomes; format: ADME
[44] = AUClast in cynomolgus monkey at 1 mg/kg, iv administered as 5 mins infusion; format: ADME, organism-based, Macaca fascicularis; design: dose 1 mg/kg, route intravenous, time 0 - last; conditions: in vivo
[45] = Unbound plasma concentration in guinea pig at 2 to 10 mg/kg, iv; format: ADME, organism-based, Cavia porcellus; conditions: in vivo
[46] = Aqueous solubility of the compound at pH 7.4; format: physicochemical; conditions: aqueous medium
[47] = Clearance in CD-1 mouse at 1 mg/kg, iv administered as 5 mins infusion; format: ADME, organism-based; conditions: in vivo
[48] = Half life in human liver microsomes; format: ADME, microsome
[49] = Volume of distribution at steady state in Beagle dog at 1 mg/kg, iv administered as 5 mins infusion; format: ADME, organism-based, Canis lupus familiaris; conditions: in vivo, read-out: Vdss
Mus musculus [50] = assay: Ex vivo receptor occupancy at GluN2B receptor in CD-1 mouse forebrain membranes assessed as reduction in [3H]Ro 25-6981 receptor labeling at 1 mg/kg, iv incubated for 5 mins by topcount micro scintillation counting method; format: functional
[51] = Half life in cynomolgus monkey liver microsomes; format: ADME, Macaca fascicularis, microsome
Cytochrome P450 2C9 [52] = target: T4, Cytochrome P450 2C9; assay: Inhibition of CYP2C9 in human liver microsomes; format: ADME
Rhesus monkey = assay: AUC (0 to 24 hrs) in monkey at 36 mg/kg, iv assessed as BMS-986169 level in plasma; format: ADME, organism-based, Macaca mulatta; design: dose 36 mg/kg, time < 24 hr, route intravenous; conditions: in vivo
[53] = Half life in rat liver microsomes; format: ADME, microsome
[54] = Binding affinity to GluN2B receptor in cynomolgus monkey cortex; design: species or system Macaca fascicularis
Cytochrome P450 2C19 [55] = target: T6, Cytochrome P450 2C19; assay: Time dependent inhibition of CYP2C19 in human liver microsomes; format: ADME
[56] = Prodrug activation in monkey assessed as BMS-986169 level in blood at 37 degC; format: tissue-based, Macaca mulatta; conditions: rhesus monkey
[57] = Fraction unbound in mouse plasma; format: ADME, cell-free
[58] = Oral bioavailability in rat at 5 mg/kg; format: ADME, organism-based; conditions: in vivo
[59] = Fraction unbound in rat plasma; format: ADME, cell-free
[60] = Prodrug activation in human assessed as BMS-986169 level in blood at 37 degC; format: tissue-based
[61] = Prodrug activation in dog assessed as BMS-986169 level in blood at 37 degC; format: tissue-based, Canis lupus familiaris
[62] = Half life in Beagle dog at 1 mg/kg, iv administered as 5 mins infusion; format: ADME, organism-based, Canis lupus familiaris; conditions: in vivo

T7 sequence (P05177 whole entry): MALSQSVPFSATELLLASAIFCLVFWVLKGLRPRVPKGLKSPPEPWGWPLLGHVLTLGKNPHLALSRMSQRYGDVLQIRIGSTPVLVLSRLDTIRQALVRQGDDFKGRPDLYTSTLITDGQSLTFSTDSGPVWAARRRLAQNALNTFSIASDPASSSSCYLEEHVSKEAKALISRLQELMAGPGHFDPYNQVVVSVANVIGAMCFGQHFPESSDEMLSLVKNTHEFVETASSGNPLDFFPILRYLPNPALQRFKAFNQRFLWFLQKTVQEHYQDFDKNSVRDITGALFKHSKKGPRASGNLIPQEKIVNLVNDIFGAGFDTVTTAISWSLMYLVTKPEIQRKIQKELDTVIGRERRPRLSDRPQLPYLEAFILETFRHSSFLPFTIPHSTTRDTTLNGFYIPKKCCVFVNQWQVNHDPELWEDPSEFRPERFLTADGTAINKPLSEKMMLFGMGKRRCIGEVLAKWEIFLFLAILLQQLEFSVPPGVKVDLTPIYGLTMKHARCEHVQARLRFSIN
T6 sequence (P33261 whole entry): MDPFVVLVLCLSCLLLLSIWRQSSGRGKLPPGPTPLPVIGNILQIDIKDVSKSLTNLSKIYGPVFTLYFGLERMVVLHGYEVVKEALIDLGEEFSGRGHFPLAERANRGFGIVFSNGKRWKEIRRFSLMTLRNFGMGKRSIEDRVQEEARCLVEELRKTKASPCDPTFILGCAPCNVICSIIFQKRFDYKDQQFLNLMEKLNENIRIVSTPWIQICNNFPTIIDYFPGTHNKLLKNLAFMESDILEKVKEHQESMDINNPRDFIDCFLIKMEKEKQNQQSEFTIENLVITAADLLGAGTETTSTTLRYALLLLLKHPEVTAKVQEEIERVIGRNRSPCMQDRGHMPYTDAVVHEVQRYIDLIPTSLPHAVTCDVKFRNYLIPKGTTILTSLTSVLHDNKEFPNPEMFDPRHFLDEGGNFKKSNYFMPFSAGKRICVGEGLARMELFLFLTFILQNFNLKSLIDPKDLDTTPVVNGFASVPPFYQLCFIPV
T2 sequence (P20813 whole entry): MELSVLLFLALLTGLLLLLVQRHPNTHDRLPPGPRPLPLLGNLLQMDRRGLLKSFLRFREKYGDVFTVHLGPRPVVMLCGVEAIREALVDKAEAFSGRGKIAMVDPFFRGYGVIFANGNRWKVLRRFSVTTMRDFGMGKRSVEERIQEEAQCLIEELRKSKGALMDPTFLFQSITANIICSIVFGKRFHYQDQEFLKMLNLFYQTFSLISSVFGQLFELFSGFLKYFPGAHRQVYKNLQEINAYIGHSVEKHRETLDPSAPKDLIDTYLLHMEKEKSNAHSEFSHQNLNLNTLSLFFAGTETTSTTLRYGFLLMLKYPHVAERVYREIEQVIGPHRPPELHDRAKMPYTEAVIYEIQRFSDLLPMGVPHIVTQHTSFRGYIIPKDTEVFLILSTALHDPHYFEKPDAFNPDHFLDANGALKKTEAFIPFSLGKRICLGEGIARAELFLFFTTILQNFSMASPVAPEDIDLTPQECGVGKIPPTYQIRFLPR
T5 sequence (P10632 whole entry, the tested form may be a part): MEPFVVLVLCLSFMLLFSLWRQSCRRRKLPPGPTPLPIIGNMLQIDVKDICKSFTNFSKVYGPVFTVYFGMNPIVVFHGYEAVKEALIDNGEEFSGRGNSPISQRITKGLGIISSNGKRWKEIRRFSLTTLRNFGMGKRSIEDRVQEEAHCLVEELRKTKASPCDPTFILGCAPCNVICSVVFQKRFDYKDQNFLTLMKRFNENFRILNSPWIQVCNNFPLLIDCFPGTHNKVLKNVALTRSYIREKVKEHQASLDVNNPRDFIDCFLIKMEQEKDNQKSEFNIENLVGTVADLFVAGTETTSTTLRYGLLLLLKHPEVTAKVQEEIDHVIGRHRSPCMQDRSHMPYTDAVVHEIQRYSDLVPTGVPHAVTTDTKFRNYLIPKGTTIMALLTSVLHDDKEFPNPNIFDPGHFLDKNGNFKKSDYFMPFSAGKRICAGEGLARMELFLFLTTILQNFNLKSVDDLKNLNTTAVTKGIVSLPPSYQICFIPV
T3 sequence (P08684 whole entry, the tested form may be a part): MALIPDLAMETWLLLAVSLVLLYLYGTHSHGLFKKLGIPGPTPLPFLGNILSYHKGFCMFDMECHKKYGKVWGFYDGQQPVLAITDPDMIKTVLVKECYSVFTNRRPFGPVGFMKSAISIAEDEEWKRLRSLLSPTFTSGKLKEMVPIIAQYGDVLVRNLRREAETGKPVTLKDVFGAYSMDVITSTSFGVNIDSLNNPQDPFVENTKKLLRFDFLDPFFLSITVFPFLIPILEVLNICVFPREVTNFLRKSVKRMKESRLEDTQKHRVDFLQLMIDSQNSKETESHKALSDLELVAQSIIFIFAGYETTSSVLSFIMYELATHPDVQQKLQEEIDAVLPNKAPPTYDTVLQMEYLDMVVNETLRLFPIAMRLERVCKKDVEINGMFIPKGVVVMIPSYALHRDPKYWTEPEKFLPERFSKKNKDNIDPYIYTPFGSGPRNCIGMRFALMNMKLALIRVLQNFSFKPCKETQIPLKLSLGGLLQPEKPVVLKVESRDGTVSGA
T1 sequence (P10635 whole entry): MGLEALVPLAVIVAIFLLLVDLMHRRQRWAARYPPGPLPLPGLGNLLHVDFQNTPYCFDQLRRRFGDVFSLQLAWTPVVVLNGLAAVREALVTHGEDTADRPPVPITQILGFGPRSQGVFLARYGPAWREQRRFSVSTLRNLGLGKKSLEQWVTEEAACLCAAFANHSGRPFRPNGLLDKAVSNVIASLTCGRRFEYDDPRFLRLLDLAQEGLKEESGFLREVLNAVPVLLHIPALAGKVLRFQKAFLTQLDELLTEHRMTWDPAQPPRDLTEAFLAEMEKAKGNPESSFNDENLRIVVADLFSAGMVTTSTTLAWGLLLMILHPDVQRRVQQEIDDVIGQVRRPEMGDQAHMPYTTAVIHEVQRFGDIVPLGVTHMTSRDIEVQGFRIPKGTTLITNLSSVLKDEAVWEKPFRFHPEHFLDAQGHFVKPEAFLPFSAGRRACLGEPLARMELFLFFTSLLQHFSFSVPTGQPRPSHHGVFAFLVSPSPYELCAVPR
T4 sequence (P11712 whole entry): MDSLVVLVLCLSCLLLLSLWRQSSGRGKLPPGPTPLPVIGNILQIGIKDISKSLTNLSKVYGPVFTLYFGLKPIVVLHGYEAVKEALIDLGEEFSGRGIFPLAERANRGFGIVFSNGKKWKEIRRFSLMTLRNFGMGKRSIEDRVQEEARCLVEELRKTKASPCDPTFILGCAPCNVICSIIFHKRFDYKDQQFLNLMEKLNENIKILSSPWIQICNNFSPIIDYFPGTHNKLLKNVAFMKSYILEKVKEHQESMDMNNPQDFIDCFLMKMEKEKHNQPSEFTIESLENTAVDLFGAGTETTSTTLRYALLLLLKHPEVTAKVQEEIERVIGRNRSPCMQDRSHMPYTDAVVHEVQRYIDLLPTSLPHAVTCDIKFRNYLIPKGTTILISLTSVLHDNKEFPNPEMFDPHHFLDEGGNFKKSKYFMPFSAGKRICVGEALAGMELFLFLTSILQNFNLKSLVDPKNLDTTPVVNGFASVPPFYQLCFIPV
Voltage-gated inwardly rectifying potassium channel KCNH2, sequence (Q12809 whole entry): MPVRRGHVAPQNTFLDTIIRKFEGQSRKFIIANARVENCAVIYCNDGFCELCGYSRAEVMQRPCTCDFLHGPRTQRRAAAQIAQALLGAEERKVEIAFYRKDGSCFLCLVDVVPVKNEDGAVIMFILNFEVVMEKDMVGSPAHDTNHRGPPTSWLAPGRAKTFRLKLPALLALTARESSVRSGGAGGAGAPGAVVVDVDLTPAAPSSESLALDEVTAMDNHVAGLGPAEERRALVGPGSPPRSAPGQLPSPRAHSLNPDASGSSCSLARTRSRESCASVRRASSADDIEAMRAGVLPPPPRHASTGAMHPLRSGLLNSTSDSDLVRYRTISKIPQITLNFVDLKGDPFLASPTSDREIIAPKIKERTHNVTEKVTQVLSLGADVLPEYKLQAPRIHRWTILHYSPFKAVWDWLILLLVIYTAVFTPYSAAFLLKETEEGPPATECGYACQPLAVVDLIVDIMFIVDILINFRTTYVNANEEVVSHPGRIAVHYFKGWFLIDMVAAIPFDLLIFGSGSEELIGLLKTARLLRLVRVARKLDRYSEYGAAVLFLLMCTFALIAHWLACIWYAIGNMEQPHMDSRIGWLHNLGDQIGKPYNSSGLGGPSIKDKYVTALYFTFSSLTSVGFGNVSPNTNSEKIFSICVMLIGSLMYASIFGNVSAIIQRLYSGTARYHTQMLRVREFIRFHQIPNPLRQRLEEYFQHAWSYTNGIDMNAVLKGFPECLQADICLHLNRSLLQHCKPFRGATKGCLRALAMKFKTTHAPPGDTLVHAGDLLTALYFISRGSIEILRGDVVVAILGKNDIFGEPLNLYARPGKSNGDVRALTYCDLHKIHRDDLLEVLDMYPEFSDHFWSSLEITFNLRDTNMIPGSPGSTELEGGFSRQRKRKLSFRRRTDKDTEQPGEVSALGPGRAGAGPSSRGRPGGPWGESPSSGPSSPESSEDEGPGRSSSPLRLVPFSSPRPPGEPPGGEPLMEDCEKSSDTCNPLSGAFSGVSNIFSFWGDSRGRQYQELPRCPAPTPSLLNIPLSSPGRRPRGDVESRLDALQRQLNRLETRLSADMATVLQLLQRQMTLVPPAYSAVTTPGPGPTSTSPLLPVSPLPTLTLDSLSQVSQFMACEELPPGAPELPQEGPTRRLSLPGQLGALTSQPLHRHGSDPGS

concentration [2]: 590 nM
Structure (SMILES): Cc1ccc(CN2CC[C@@H](N3CC[C@H](c4ccc(O)cc4)[C@H](F)C3)C2=O)cc1
Occ (Mus musculus [1]): 95%
IC50 [3]: 7.8 µM

TDI (Cytochrome P450 2D6 [4]): Not Active
TDI (Cytochrome P450 2B6 [5]): Not Active
IC50 (Cytochrome P450 3A4 [6]): > 18 µM
half-life [7]: 90 min
AUC(0-t) at 5 min [8]: 0.53 µM·h
pKa [9]: 4.4
Ki [10]: 0.0063 µM
AUC(0-t) at 5 min [11]: 1.3 µM·h
inhibition [12]: inactive
Vd [13]: 8.2 L/kg
TDI (Cytochrome P450 3A4 [14]): Not Active
IC50 (Cytochrome P450 2B6 [15]): > 18 µM
Drug metabolism [16]: Metabolite_Detected
half-life [17]: 216 min
clearance [18]: 15 mL/min/kg
TDI (Cytochrome P450 2C9 [19]): Not Active
Drug metabolism [20]: Metabolite_Detected
half-life [21]: 6 min
IC50 (Cytochrome P450 2D6 [22]): > 18 µM
clearance [23]: 54 mL/min/kg
clearance [24]: 17 mL/min/kg
inhibition [25]: 8.6%
IC50 (Cytochrome P450 2C8 [26]): > 18 µM
Vd [27]: 1.7 L/kg
fraction unbound [28]: 0.06
TDI (Cytochrome P450 2C8 [29]): Not Active
half-life [30]: 54 min
inhibition [31]: 7%
fraction unbound [32]: 0.07
IC50 [33]: 0.024 µM
concentration [2]: 270 to 1100 nM
IC50 (Cytochrome P450 2C19 [34]): > 18 µM
logD [35]: 2.9
inhibition [36]: -2.4%
Vd [37]: 2.3 L/kg
AUC(0-t) at 5 min [38]: 2.5 µM·h
Kp [39]: 2.8
half-life [40]: 3.5 min
IC50 (Cytochrome P450 1A2 [41]): > 18 µM
fraction unbound [42]: 0.11
TDI (Cytochrome P450 1A2 [43]): Not Active
AUC(0-t) at 5 min [44]: 2.7 µM·h
Cp(f) [45]: <= 19 uM
solubility [46]: 2 µg/mL (≈ 5.23 µM)
clearance [47]: 75 mL/min/kg
half-life [48]: 25 min
Vd [49]: 2.1 L/kg
half-life [51]: 12 min
IC50 (Cytochrome P450 2C9 [52]): > 18 µM
AUC (Rhesus monkey): 88 µM·h
half-life [53]: 2.7 min
Ki [54]: 0.0042 µM
TDI (Cytochrome P450 2C19 [55]): Not Active
Drug metabolism [56]: Metabolite_Detected
fraction unbound [57]: 0.12
bioavailability [58]: 2.5%
fraction unbound [59]: 0.09
Drug metabolism [60]: Metabolite_Detected
Drug metabolism [61]: Metabolite_Detected
half-life [62]: 126 min
Structure (SMILES): Cc1ccc(CN2CC[C@@H](N3CC[C@@H](c4ccc(O)cc4)[C@H](F)C3)C2=O)cc1
Activity (Cavia porcellus): Non-Toxic
Activity (Salmonella typhimurium): Non-Toxic
Occ (Mus musculus [1]): 95%
Occ (Mus musculus [50]): 73%

Reference: ChEMBL document CHEMBL4145597, “BMS-986163, a Negative Allosteric Modulator of GluN2B with Potential Utility in Major Depressive Disorder” (ACS Med Chem Lett, 2018)
